Results: patent US20260108465A1 (Belhaven BioPharma Inc., priority 2024, published 2026)
Where two headings read alike, the source gives them in different places.

Details: human, in vivo; for mean AUC0-363: im

time of the second IM Cmax after dosing: approximately 45 minutes
mean AUC0-363 (0.3 mg): 18790 pg·min/mL
mean AUC0-363 (0.5 mg): 35890 pg·min/mL
Structure (SMILES): CNC[C@H](O)c1ccc(O)c(O)c1 [Epinephrine IM, epinephrine]
